Reference: ChEMBL document CHEMBL1147960, “Spectroscopic studies of DNA binding modes of cation-substituted anthrapyrazoles derived from emodin” (Eur J Med Chem, 2007)
pIC50: −log10 of the molar value.

What was measured:
[1] = system: HepG2; experiment: Cytotoxicity against human HepG2 cells; type: functional, cell-based
[2] = Cytotoxicity against mouse LLC cells; type: functional, cell-based; conditions: Lewis lung carcinoma
[3] = system: B16; experiment: Cytotoxicity against mouse B16 cells; type: functional, cell-based
[4] = system: DNA; experiment: Binding affinity to calf thymus DNA; type: nucleic-acid assay, Bos taurus

| Compound | pIC50 [1] | pIC50 [2] | pIC50 [3] | Kb [4] [M⁻¹] |
| --- | --- | --- | --- | --- |
| CCN(CC)CCn1nc2c3c(cc(C)cc31)C(=O)c1cc(OC)cc(OC)c1-2 | 5.31 | 5.35 | 5.44 | 552000 |
| CCN(CC)CCNCCn1nc2c3c(cc(C)cc31)C(=O)c1cc(OC)cc(OC)c1-2 | 4.42 | 4.89 | 5.00 | 253000 |
| COc1cc(OC)c2c(c1)C(=O)c1cc(C)cc3c1c-2nn3CCN1CCN(C)CC1 | 5.14 | 5.05 | 4.70 | 698000 |
| Cc1cc(O)c2c(c1)C(=O)c1cc(O)cc(O)c1C2=O [EMODIN] | 4.26 | < 4.00 | < 4.00 | 68000 |
